Results: article PMC2358886, “Evolution of pharmacologic specificity in the pregnane X receptor” (BMC Evolutionary Biology, 2008)
Read-outs that look alike come from different tables or passages of the source.

Experiments:
chicken PXR [1] = target: T1, chicken PXR (Gallus gallus, UniProt Q9DFH3); assay: in vitro
T1 sequence (Q9DFH3 1-391): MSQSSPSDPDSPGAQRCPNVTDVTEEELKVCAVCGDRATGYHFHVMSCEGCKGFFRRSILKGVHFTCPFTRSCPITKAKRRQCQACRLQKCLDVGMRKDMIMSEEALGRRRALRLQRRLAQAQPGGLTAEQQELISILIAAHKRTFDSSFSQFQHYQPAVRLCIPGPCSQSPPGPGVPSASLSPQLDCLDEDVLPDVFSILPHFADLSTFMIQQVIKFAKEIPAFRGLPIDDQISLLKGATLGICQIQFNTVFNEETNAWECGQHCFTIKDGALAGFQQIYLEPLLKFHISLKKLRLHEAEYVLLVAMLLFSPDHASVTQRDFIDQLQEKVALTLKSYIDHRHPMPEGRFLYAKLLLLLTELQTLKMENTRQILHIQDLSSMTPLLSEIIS

human PXR = target: T2, human PXR (Homo sapiens, UniProt O75469)
T2 sequence (O75469 1-434): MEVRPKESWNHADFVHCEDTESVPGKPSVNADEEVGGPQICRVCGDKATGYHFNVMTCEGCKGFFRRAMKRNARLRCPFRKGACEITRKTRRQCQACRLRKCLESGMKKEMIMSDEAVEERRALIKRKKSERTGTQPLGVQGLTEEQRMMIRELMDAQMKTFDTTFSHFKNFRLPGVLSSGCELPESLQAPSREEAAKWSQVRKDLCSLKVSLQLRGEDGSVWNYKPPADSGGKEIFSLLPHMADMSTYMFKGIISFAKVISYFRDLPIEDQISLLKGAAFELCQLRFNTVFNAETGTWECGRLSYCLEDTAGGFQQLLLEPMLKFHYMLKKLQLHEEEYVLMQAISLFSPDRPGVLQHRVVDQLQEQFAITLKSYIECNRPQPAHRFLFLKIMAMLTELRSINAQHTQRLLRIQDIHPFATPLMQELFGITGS

zebrafish PXR [2] = target: T3, zebrafish PXR (Danio rerio, UniProt A5WYG8); assay: cell-based
T3 sequence (A5WYG8 144-430): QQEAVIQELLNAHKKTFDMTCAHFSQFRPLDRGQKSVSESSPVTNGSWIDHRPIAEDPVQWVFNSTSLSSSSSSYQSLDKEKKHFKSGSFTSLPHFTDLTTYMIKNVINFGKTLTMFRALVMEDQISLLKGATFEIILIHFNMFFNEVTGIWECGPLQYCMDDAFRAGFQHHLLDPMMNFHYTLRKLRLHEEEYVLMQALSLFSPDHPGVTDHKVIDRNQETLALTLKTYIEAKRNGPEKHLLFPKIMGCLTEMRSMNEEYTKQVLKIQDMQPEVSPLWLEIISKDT

Ciona VDR/PXR = assay: Activation of Ciona VDR/PXR (LBD/GAL4 chimeric receptor) luciferase reporter assay; type: cell-based, Ciona intestinalis; conditions: screening, reference maximal activator 20 μM 6-formylindolo-[3,2-b]carbazole
Source text: The LBD of Ciona VDR/PXR was cloned from cDNA fragments generously provided by Professors Yuji Kohara and Norituki Satoh, and then inserted into the PM2-GAL4 plasmid to create an LBD/GAL4 chimeric receptor.
The LBD of Xenopus tropicalis (Western clawed frog) PXR (xtPXR) was cloned by PCR from RNA extracted from ovary of an adult female frog. Ciona VDR/PXR was cloned from cDNA fragments ciem829d05 and cilv048e18 provided by Professor Yuji Kohara (Center for Genetic Resource Information, National Institute of Genetics, Research Organization of Information and Systems, Mishima, Japan) and Professor Noriyuki Satoh (Kyoto University, Kyoto, Japan), with analysis of the cDNA clones supported by Grant-in-aid for Scientific Research on Priority Area "Genome" of Ministry of Education, Culture, Sports, Science and Technology, Japan.
The creation of a HepG2 (human liver) cell line stably expressing the human Na^+-taurocholate cotransporter (NTCP) has been previously reported. HepG2-NTCP cells were grown in modified Eagle's medium-α containing 10% fetal bovine serum and 1% penicillin/streptomycin (Invitrogen, Carlsbad, CA, USA). Plasmids containing cDNAs for 8 PXRs from 7 species (human, mouse, rat, rabbit, chicken [also called chicken X receptor, CXR], African clawed frog [also termed Xenopus laevis benzoate X receptors α and β, BXRα and BXRβ ], zebrafish), as well as the reporter constructs tk-UAS-Luc and CYP3A4-PXRE-Luc, and 'empty' vectors pCDNA, PsG5, and PM2 were generously provided by SA Kliewer, JT Moore, and LB Moore (GlaxoSmithKline, Research Triangle Park, NC, USA). […] For the full-length expression vectors, the reporter plasmid was CYP3A4-PXRE-Luc, a construct that contains a promoter element from CYP3A4 (recognized by PXR DBDs) driving luciferase expression. For the GAL4/LBD expression constructs, the reporter plasmid was tk-UAS-Luc, which contains GAL4 DNA binding elements driving luciferase expression. The following transfection ratios of reporter, receptor, and β-galactosidase plasmids were used (ng/well): human, mouse, rabbit, and rat PXRs – 25/2.7/20; chicken PXR – 10/1/20; Xenopus tropicalis PXR, zebrafish PXR, and Ciona VDR/PXR – 75/50/20.
The PXR activation assay was a luciferase-based reporter assay. On day 1, 30,000 cells/well were seeded onto 96-well white opaque plates (Corning-Costar, Corning, NY, USA). On day 2, cells were transfected using the calcium phosphate precipitation method with expression vector or 'empty' control vector and luciferase reporter plasmid. On day 3, the cells were washed and then incubated with medium containing charcoal-dextran treated fetal bovine serum (Hyclone, Logan, UT, USA) and drugs or vehicle. On day 4, the cells were washed and the medium replaced with serum-free medium. […]

zebrafish PXR [3] = target: T3, zebrafish PXR
rat PXR [4] = target: T4, rat PXR (Rattus norvegicus, UniProt Q9R1A7); assay: cell-based
T4 sequence (Q9R1A7 1-431): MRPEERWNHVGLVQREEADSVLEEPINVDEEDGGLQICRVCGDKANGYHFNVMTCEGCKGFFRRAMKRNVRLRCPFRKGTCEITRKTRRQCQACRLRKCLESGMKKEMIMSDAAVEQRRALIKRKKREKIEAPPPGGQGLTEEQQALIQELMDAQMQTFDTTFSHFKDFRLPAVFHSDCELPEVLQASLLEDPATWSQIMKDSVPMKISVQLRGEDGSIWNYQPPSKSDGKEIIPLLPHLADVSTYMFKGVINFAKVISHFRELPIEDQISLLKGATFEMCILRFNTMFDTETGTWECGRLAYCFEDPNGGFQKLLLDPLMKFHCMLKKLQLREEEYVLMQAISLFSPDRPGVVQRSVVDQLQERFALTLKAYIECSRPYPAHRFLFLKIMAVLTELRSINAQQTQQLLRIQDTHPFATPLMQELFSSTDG

Xenopus tropicalis PXR = assay: Activation of Xenopus tropicalis PXR (GAL4-LBD chimeric construct) luciferase reporter assay; type: cell-based
Procedure: Cloning of the LBD of this PXR from adult female ovary and expression in a GAL4-LBD chimeric construct allowed for determination of ligand specificity.
The PXR activation assay was a luciferase-based reporter assay [17, 45]. On day 1, 30,000 cells/well were seeded onto 96-well white opaque plates (Corning-Costar, Corning, NY, USA). On day 2, cells were transfected using the calcium phosphate precipitation method with expression vector or 'empty' control vector and luciferase reporter plasmid. On day 3, the cells were washed and then incubated with medium containing charcoal-dextran treated fetal bovine serum (Hyclone, Logan, UT, USA) and drugs or vehicle. […]

chicken PXR [5] = target: T1, chicken PXR; assay: cell-based
rabbit PXR [6] = target: T5, rabbit PXR (Oryctolagus cuniculus, UniProt Q9TU02)
T5 sequence (Q9TU02 1-411): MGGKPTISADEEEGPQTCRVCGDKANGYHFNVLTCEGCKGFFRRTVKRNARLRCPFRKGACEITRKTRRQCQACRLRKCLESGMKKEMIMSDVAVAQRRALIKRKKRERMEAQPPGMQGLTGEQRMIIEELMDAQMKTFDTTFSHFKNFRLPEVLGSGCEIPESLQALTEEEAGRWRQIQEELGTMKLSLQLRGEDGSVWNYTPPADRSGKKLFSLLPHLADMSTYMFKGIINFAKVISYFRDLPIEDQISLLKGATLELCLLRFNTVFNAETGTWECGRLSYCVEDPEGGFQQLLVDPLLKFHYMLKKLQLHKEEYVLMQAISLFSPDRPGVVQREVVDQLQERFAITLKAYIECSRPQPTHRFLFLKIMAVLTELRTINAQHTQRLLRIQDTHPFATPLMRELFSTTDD

chicken PXR [7] = target: T1, chicken PXR
rat PXR [8] = target: T4, rat PXR
rabbit PXR [9] = target: T5, rabbit PXR; assay: PXR activation luciferase reporter assay, rabbit PXR; conditions: -log(EC50), EC50 in molar units
mouse PXR = target: T6, mouse PXR (Mus musculus, UniProt O54915)
T6 sequence (O54915 1-431): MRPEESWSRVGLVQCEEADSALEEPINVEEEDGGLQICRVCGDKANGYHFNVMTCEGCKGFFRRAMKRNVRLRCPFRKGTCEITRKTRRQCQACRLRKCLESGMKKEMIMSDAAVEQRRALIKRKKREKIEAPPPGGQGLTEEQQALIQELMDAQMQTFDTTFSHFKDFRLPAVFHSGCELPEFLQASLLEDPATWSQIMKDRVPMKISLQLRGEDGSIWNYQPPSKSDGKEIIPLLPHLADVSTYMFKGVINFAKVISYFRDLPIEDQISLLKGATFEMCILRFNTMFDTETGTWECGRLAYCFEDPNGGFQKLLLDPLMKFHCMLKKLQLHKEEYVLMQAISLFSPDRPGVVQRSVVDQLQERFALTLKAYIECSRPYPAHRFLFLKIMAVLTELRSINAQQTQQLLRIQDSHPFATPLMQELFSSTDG

[10] = -log(EC50), EC50 in molar units

## CCCCOC(=O)c1ccc(N)cc1 [MI4, n-Butyl-4-aminobenzoate]
Chicken PXR [1]
  EC50: > 100 µM
Human PXR; human
  hPXR Efficacy: 1.35
HepG2 cells; human, 24 hr
  Toxicity: 100 µM
Zebrafish PXR [2]
  EC50: 13.8 µM
Ciona VDR/PXR; listed as n-butyl p-aminobenzoate
  Activation of Ciona VDR/PXR (in words): Weaker activation
Ciona VDR/PXR; listed as n-butyl-p-aminobenzoate
  Activation of Ciona VDR/PXR (in words): micromolar range
Zebrafish PXR [3]; zebrafish
  zfPXR Efficacy: 0.69
Rat PXR [4]
  EC50: > 100 µM
Xenopus tropicalis PXR
  Activation of Xenopus tropicalis PXR (in words): activates

## C[C@H](CCC(=O)O)[C@H]1CC[C@H]2[C@@H]3[C@H](O)C[C@@H]4C[C@H](O)CC[C@]4(C)[C@H]3CC[C@]12C [BI005, Chenodeoxycholic acid]
Chicken PXR [5]
  EC50: 20 µM
Rabbit PXR [6]; rabbit
  Rabbit PXR efficacy, ε: 4.70 (ε = 0.42)
Chicken PXR [7]; chicken
  Chicken PXR efficacy, ε: 4.70 (ε = 0.36)
Rat PXR [8]
  Rat PXR Activity: No effect

## C[C@H](CCC(O)C(CO)COS(=O)(=O)O)[C@H]1CC[C@H]2[C@@H]3[C@H](O)C[C@@H]4C[C@H](O)CC[C@]4(C)[C@H]3C[C@H](O)[C@]12C (stereo partly drawn) [BI034, 5β-Cholestan-3α,7α,12α,24,26-pentol-27-sulfate]
Human PXR
  hPXR Efficacy: 0.39
HepG2 cells
  Toxicity: 200 µM
Rabbit PXR [6]
  Rabbit PXR efficacy, ε: 1.93
Chicken PXR [7]
  Chicken PXR efficacy, ε: 0.88
Chicken PXR [7]; [10]
  Chicken PXR Activity: 4.37
Rabbit PXR [9]
  Rabbit PXR Activity: 4.09
Rat PXR [8]
  Rat PXR efficacy, ε: 0.85
Rat PXR [8]; [10]
  Rat PXR Activity: 4.40
Zebrafish PXR [3]
  zfPXR Efficacy: 0.13
Zebrafish PXR [3]; -log(EC50), EC50 in molar units, activation of zebrafish PXR
  zfPXR Activity: 4.35
Zebrafish PXR [3]; bile salts
  Activation of zebrafish PXR (in words): activated
Mouse PXR
  Mouse PXR efficacy, ε: 0.85
Mouse PXR; [10]
  Mouse PXR Activity: 4.44
